Laboratory results published in patent US6737383B1, “Herbicidal oxadiazolidines” (priority 1999, dated 2004).

Legend:
bedstraw = test: Test B pre/postemergence bedstraw; assay type: in vivo, Galium aparine
Summary of the method: (§1)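 Test chemicals in a non-phytotoxic solvent mixture with surfactant were sprayed preemergence onto planted seeds and postemergence onto plants 2 to 18 cm tall (1- to 4-leaf stage). After twelve to sixteen days in a greenhouse, injury was visually rated against untreated controls from 0 (no effect) to 10 (complete control).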

blackgrass = test: Test B pre/postemergence blackgrass; assay type: in vivo, Alopecurus myosuroides
Summary of the method: as §1

surinam grass = test: Test B pre/postemergence surinam grass; assay type: in vivo, Brachiaria decumbens
Summary of the method: as §1

corn = test: Test B pre/postemergence corn; assay type: in vivo, Zea mays
Summary of the method: as §1

giant foxtail = test: Test B pre/postemergence giant foxtail; assay type: in vivo, Setaria faberii
Summary of the method: as §1

morningglory = test: Test B pre/postemergence morningglory; assay type: in vivo, Ipomoea hederacea
Summary of the method: as §1

pigweed = test: Test B pre/postemergence pigweed; assay type: in vivo, Amaranthus retroflexus
Summary of the method: as §1

rape = test: Test B pre/postemergence rape; assay type: in vivo, Brassica napus
Summary of the method: as §1

soybean = test: Test B pre/postemergence soybean; assay type: in vivo, Glycine max
Summary of the method: as §1

sugar beet = test: Test B pre/postemergence sugar beet; assay type: in vivo, Beta vulgaris
Summary of the method: as §1

velvetleaf = test: Test B pre/postemergence velvetleaf; assay type: in vivo, Abutilon theophrasti
Summary of the method: as §1

purple nutsedge = test: Test B pre/postemergence purple nutsedge; assay type: in vivo, Cyperus rotundus
Summary of the method: as §1

rice = test: Test B flood test rice; assay type: in vivo, Oryza sativa
Summary of the method: (§2)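 Plants were grown to the 2-leaf stage before treatment with test chemical, then held in a greenhouse for twelve to sixteen days. Injury was visually rated against untreated controls on a 0–10 scale, where 0 is no effect and 10 is complete control.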

smallflower flatsedge = test: Test B flood test smallflower flatsedge; assay type: in vivo, Cyperus difformis
Summary of the method: as §2

duck salad = test: Test B flood test duck salad; assay type: in vivo, Heteranthera limosa
Summary of the method: as §2

bamyardgrass = test: Test B flood test barnyardgrass; assay type: in vivo, Echinochloa crus-galli
Summary of the method: as §2

[1] = Postemergence, Rate 125 g/ha, scale of 0 to 10 where 0 is no effect and 10 is complete control
[2] = Preemergence, Rate 62 g/ha, scale 0 to 10 (0 no effect, 10 complete control)
[3] = Preemergence, Rate 125 g/ha, 0 is no effect, 10 is complete control
[4] = Preemergence, Rate 250 g/ha, scale 0 to 10, 0 is no effect, 10 is complete control
[5] = Preemergence, Rate 500 g/ha, scale 0 to 10 (0 no effect, 10 complete control)
[6] = Rate 250 g/ha, Postemergence, scale 0 to 10, 0 is no effect, 10 is complete control
[7] = Rate 62 g/ha, Postemergence, scale of 0 to 10 where 0 is no effect and 10 is complete control
[8] = Rate 500 g/ha, Postemergence, scale 0 to 10
[9] = Postemergence (flood test species), Rate 125 g/ha, scale of 0 to 10 where 0 is no effect and 10 is complete control
[10] = Rate 31 g/ha, Postemergence section (flood test species), scale 0 to 10
[11] = Rate 62 g/ha, Postemergence section, flood test species, scale of 0 to 10 where 0 is no effect and 10 is complete control
[12] = Rate 250 g/ha, Postemergence (flood test), scale 0 to 10, 0 is no effect, 10 is complete control
[13] = Rate 250 g/ha, Pre-emergence, flood-test species, scale 0 to 10, 0 is no effect, 10 is complete control
[14] = Rate 500 g/ha, headed Pre-emergence (flood test species), scale 0 to 10 (0 no effect, 10 complete control)
[15] = Rate 1000 g/ha, Pre-emergence (as headed), scale 0 to 10
[16] = Rate 2000 g/ha, Pre-emergence (as headed), scale 0 to 10

## C=C(C)Cn1c(=O)on(C(=O)N(c2ccc(F)cc2)C(C)C)c1=O [Compound 139]
bedstraw; [1]
  Bedstraw plant response rating: 2
bedstraw; [2]
  Bedstraw plant response rating: 0
bedstraw; [3]
  Bedstraw plant response rating (0 to 10 scale): 0
bedstraw; [4]
  Bedstraw plant response rating: 2
bedstraw; [5]
  Bedstraw plant response rating: 9
bedstraw; [6]
  Plant response rating, Bedstraw: 5
bedstraw; Rate 500 g/ha, Postemergence, scale 0 to 10, 0 no effect, 10 complete control
  Bedstraw plant response rating: 5
blackgrass; [1]
  Blackgrass plant response rating: 2
blackgrass; [2]
  Blackgrass plant response rating: 4
blackgrass; [3]
  Blackgrass plant response rating (0 to 10 scale): 6
blackgrass; [4]
  Blackgrass plant response rating: 9
blackgrass; [5]
  Blackgrass plant response rating: 10
blackgrass; [7]
  Blackgrass plant response rating: 2
blackgrass; [6]
  Plant response rating, Blackgrass: 7
blackgrass; [8]
  Blackgrass plant response rating: 8
Surinam grass; [1]
  B. signalgrass plant response rating: 2
Surinam grass; [2]
  B. signalgrass plant response rating: 0
Surinam grass; [3]
  B. signalgrass plant response rating (0 to 10 scale): 2
Surinam grass; [4]
  B. signalgrass plant response rating: 8
Surinam grass; [5]
  B. signalgrass plant response rating: 9
Surinam grass; [7]
  B. signalgrass plant response rating: 2
Surinam grass; [6]
  Plant response rating, B. signalgrass: 6
Surinam grass; Rate 500 g/ha, Postemergence, scale of 0 to 10 where 0 is no effect and 10 is complete control
  B. signalgrass plant response rating: 7
corn; [1]
  Corn plant response rating: 2
corn; [2]
  Corn plant response rating: 0
corn; [3]
  Corn plant response rating (0 to 10 scale): 0
corn; [4]
  Corn plant response rating: 4
corn; [5]
  Corn plant response rating: 7
corn; [7]
  Corn plant response rating: 0
corn; [6]
  Plant response rating, Corn: 2
corn; [8]
  Corn plant response rating: 2
Giant foxtail; [1]
  Giant foxtail plant response rating: 8
Giant foxtail; [2]
  Giant foxtail plant response rating: 10
Giant foxtail; [3]
  Giant foxtail plant response rating (0 to 10 scale): 10
Giant foxtail; [4]
  Giant foxtail plant response rating: 10
Giant foxtail; [5]
  Giant foxtail plant response rating: 10
Giant foxtail; [7]
  Giant foxtail plant response rating: 6
Giant foxtail; [6]
  Plant response rating, Giant foxtail: 9
Giant foxtail; [8]
  Giant foxtail plant response rating: 9
morningglory; [1]
  Morningglory plant response rating: 5
morningglory; [2]
  Morningglory plant response rating: 0
morningglory; [3]
  Morningglory plant response rating (0 to 10 scale): 0
morningglory; [4]
  Morningglory plant response rating: 0
morningglory; [5]
  Morningglory plant response rating: 0
morningglory; [7]
  Morningglory plant response rating: 3
morningglory; [6]
  Plant response rating, Morningglory: 6
morningglory; [8]
  Morningglory plant response rating: 9
pigweed; [1]
  Redroot pigweed plant response rating: 3
pigweed; [2]
  Redroot pigweed plant response rating: 6
pigweed; [3]
  Redroot pigweed plant response rating (0 to 10 scale): 8
pigweed; [4]
  Redroot pigweed plant response rating: 10
pigweed; [5]
  Redroot pigweed plant response rating: 10
pigweed; [7]
  Redroot pigweed plant response rating: 3
pigweed; [6]
  Plant response rating, Redroot pigweed: 4
pigweed; [8]
  Redroot pigweed plant response rating: 4
rape; [1]
  Rape plant response rating: 2
rape; [2]
  Rape plant response rating: 0
rape; [3]
  Rape plant response rating (0 to 10 scale): 0
rape; [4]
  Rape plant response rating: 4
rape; [5]
  Rape plant response rating: 9
rape; [7]
  Rape plant response rating: 0
rape; [6]
  Plant response rating, Rape: 2
rape; [8]
  Rape plant response rating: 4
soybean; [1]
  Soybean plant response rating: 2
soybean; [2]
  Soybean plant response rating: 0
soybean; [3]
  Soybean plant response rating (0 to 10 scale): 0
soybean; [4]
  Soybean plant response rating: 0
soybean; [5]
  Soybean plant response rating: 2
soybean; [7]
  Soybean plant response rating: 1
soybean; [6]
  Plant response rating, Soybean: 4
soybean; [8]
  Soybean plant response rating: 5
Sugar beet; [1]
  Sugarbeets plant response rating: 0
Sugar beet; [2]
  Sugarbeets plant response rating: 3
Sugar beet; [3]
  Sugarbeets plant response rating (0 to 10 scale): 3
Sugar beet; [4]
  Sugarbeets plant response rating: 4
Sugar beet; [5]
  Sugarbeets plant response rating: 6
Sugar beet; [7]
  Sugarbeets plant response rating: 0
Sugar beet; [6]
  Plant response rating, Sugarbeets: 2
Sugar beet; [8]
  Sugarbeets plant response rating: 2
velvetleaf; [1]
  Velvetleaf plant response rating: 4
velvetleaf; [2]
  Velvetleaf plant response rating: 2
velvetleaf; [3]
  Velvetleaf plant response rating (0 to 10 scale): 3
velvetleaf; [4]
  Velvetleaf plant response rating: 5
velvetleaf; [5]
  Velvetleaf plant response rating: 7
velvetleaf; [7]
  Velvetleaf plant response rating: 2
velvetleaf; [6]
  Plant response rating, Velvetleaf: 5
velvetleaf; [8]
  Velvetleaf plant response rating: 6
Purple nutsedge; [1]
  Nutsedge plant response rating: 0
Purple nutsedge; [2]
  Nutsedge plant response rating: 0
Purple nutsedge; [3]
  Nutsedge plant response rating (0 to 10 scale): 0
Purple nutsedge; [4]
  Nutsedge plant response rating: 0
Purple nutsedge; [5]
  Nutsedge plant response rating: 0
Purple nutsedge; [7]
  Nutsedge plant response rating: 0
Purple nutsedge; [6]
  Plant response rating, Nutsedge: 0
Purple nutsedge; [8]
  Nutsedge plant response rating: 4
rice; [9]
  Rice plant response rating: 0
rice; [10]
  Rice plant response rating: 0
rice; [11]
  Rice plant response rating: 0
rice; [12]
  Plant response rating, Rice: 0
rice; [13]
  Rice plant response rating: 0
rice; [14]
  Plant response rating, Rice: 0
rice; [15]
  Rice plant response rating: 0
rice; [16]
  Rice plant response rating: 0
Smallflower flatsedge; [9]
  S. Flatsedge plant response rating: 0
Smallflower flatsedge; Pre-emergence, Rate 1000 g/ha, scale 0 to 10 (0 no effect, 10 complete control)
  S. Flatsedge plant response rating: 0
Smallflower flatsedge; [11]
  S. Flatsedge plant response rating: 0
Smallflower flatsedge; [12]
  Plant response rating, S. Flatsedge: 0
Smallflower flatsedge; [13]
  S. Flatsedge plant response rating: 0
Smallflower flatsedge; Rate 500 g/ha, Pre-emergence, flood test species, scale 0 to 10 (0 no effect, 10 complete control)
  S. Flatsedge plant response rating: 0
Smallflower flatsedge; [16]
  S. Flatsedge plant response rating: 0
Duck salad; [9]
  Ducksalad plant response rating: 0
Duck salad; [10]
  Ducksalad plant response rating: 0
Duck salad; [11]
  Ducksalad plant response rating: 0
Duck salad; [12]
  Plant response rating, Ducksalad: 0
Duck salad; [13]
  Ducksalad plant response rating: 0
Duck salad; [14]
  Plant response rating, Ducksalad: 0
Duck salad; [15]
  Ducksalad plant response rating: 0
Duck salad; [16]
  Ducksalad plant response rating: 2
bamyardgrass; [9]
  Barnyardgrass plant response rating: 0
bamyardgrass; [10]
  Barnyardgrass plant response rating: 0
bamyardgrass; [11]
  Barnyardgrass plant response rating: 0
bamyardgrass; [12]
  Plant response rating, Barnyardgrass: 0
bamyardgrass; [13]
  Barnyardgrass plant response rating: 0
bamyardgrass; [14]
  Plant response rating, Barnyardgrass: 0
bamyardgrass; [15]
  Barnyardgrass plant response rating: 0
bamyardgrass; Rate 2000 g/ha, Pre-emergence (as headed), scale 0 to 10, 0 no effect, 10 complete control
  Barnyardgrass plant response rating: 6
